What all share (type): cell-based
In one data set the test system is Bacillus subtilis. Put plainly: Overnight growth curve (OD 600 nm) cytotoxicity assay, B. subtilis. On the procedure:
A sample of B. subtilis was taken from a plate culture and inoculated into Luria Broth to culture overnight at 37° C. for approximately 16 hours. [table] Samples were incubated in darkness at room temperature for approximately 2 hrs. A black clear bottom Costar™-96 well plate was then filled, with 200 μl of sample in each well Cells were irradiated for 5 minutes at approximately 15 mW/cm^2. The cytotoxicity of the compounds without irradiation was also assessed. The 96 well plate was put into the plate reader and set up to run a growth curve protocol using the following parameters: • Incubation temperature: 37° C. • OD read wavelength 600 nm • 250 cycles, readings every 5 rains • Shaking for 5 s pre-reading This was left to run overnight to obtain kinetic growth curves based on optical density readings.

Another data set relates to Mycobacterium smegmatis. Put plainly: Overnight growth curve (OD 600 nm) cytotoxicity assay, M. smegmatis. On the procedure: A sample of M. smegmatis was taken from a plate culture and inoculated into Middlebrook 7H9 broth containing an added Middlebrook ADC growth supplement to culture overnight at 37° C. for approximately 16 hours.
Samples were incubated in darkness at room temperature for approximately 2 hrs. A black clear bottom Costar™-96 well plate was then filled, with 200 μl of sample in each well Cells were irradiated for 5 minutes at approximately 15 mW/cm^2. The cytotoxicity of the compounds without irradiation was also assessed.
The 96 well plate was put into the plate reader and set up to run a growth curve protocol using the following parameters: • Incubation temperature: 37° C. • OD read wavelength 600 nm • 250 cycles, readings every 5 rains • Shaking for 5 s pre-reading
This was left to run overnight to obtain kinetic growth curves based on optical density readings.

For another data set, the system named is black-grass cells. Put plainly: Cytotoxicity assay (FDA/PI) in black-grass cell suspension culture. The procedure: 5 mL of black-grass cell suspension culture was treated with 0.1, 1, 5, and 10 μM of compound numbers 7, 14, 12 and 15 for 1 hour at room temperature. Cells treated with 0.1% DMSO were used as a control. Cells were irradiated (˜365 nm) for 5 minutes before being incubated at 25° C., 150 rpm for 24 hours. In addition, the cytotoxicity of the compounds without irradiation was also assessed. Cell viability of five biological replicates for each concentration were determined via fluorescence assay (FDA/PI) assay. Percentage of cell viability was calculated using following formulation:
% viability={live cells (FDA)/(live cells+dead cells)}×100
The statistical analysis of percentage of cell viability was performed through one-way analysis of variance (ANOVA) followed by Tukey HSD posthoc test using SPSS 23 (IBM, Chicago, Ill., USA).

Regarding `COC(=O)/C=C/c1ccc(C#Cc2ccc(N(C)CCN)cc2)cc1` [Compound 12, methyl (2E)-3-[4-(2-{4-[(2-aminoethyl)(methyl)amino]phenyl}ethynyl)phenyl]prop-2-enoate], the “growth of B. subtilis, non-irradiated” value in the data set with Bacillus subtilis (1 μM, not irradiated) is given as “slightly less growth than the untreated samples as well as an increased lag time”. For the same compound, the “growth of B. subtilis” value in the data set with Bacillus subtilis (100 μM and 10 μM, with or without photoactivation) was “no growth is observed regardless of any photoactivation”. Further, in the data set with Bacillus subtilis (10 and 1 μM), the “cytotoxicity in B. subtilis compared with compound 6” value is reported as “more cytotoxicity”. The “growth of M. smegmatis, radiated samples” value in the data set with Mycobacterium smegmatis (100 μM, 405 nm, 5 min, approximately 15 mW/cm^2) is “begin to indicate some cytotoxicity”. The “growth of M. smegmatis, no photoactivation” value in the data set on Mycobacterium smegmatis (1-100 μM, not irradiated) is “no significant difference between the treated and untreated controls”. The black-grass cell viability result in the data set on black-grass cells (5 μM and 10 μM, after ~365 nm irradiation) is on record as “significantly reduced”. Besides, the “dependence of cytotoxic effect on irradiation” value in the data set on black-grass cells (black-grass cells, ~365 nm, 5 minutes) is “only observed after irradiation”.

The values are drawn from patent publication US20220347299A1, “FLUORESCENT SYSTEMS FOR BIOLOGICAL IMAGING AND USES THEREOF” (LIGHTOX LIMITED, priority 2019, published 2022).
